Measurements from patent US8178506B2, “Oligomeric compounds and compositions for use in modulation of small non-coding RNAs” (Regulus Therapeutics Inc., priority 2003, dated 2012).
In the oligonucleotide strings, read from the 5' end, every base follows the letter of its sugar. An asterisk marks phosphorothioate; unmarked linkages are phosphodiester. Other units and linkages are bracketed, terminal groups are in braces. A string of capitals states the bases alone. e = 2'-O-(2-methoxyethyl) (MOE); [5mC] = 5-methylcytosine

Legend:
[1] = test system: HSL; assay: HSL mRNA expression in adipocytes (real-time PCR); assay type: cell-based, human; details: for HSL mRNA: differentiating adipocytes transfected with oligomeric compound; for HSL (mRNA expression): adipocytes, 250 nM oligomeric compound, day nine post-transfection, relative to control (1.0)
[2] = test system: aP2; assay: aP2 mRNA expression in adipocytes (real-time PCR); assay type: cell-based, human; details: for AP2 (mRNA expression): adipocytes, 250 nM oligomeric compound, day nine post-transfection, relative to control (1.0)
[3] = test system: adipocytes; assay: Triglyceride accumulation assay in adipocytes; assay type: cell-based, human
[4] = test system: PPARγ; assay: PPARγ mRNA expression in adipocytes (real-time PCR); assay type: cell-based, human; details: for PPAR gamma mRNA: differentiating adipocytes transfected with oligomeric compound; for PPAR gamma (mRNA expression): adipocytes, 250 nM oligomeric compound, day nine post-transfection, relative to control (1.0)
[5] = test system: BJ, B16-F10, T47D, T47Dp53 and HeLa cells; assay: Cell cycle assay (propidium iodide flow cytometry), cell line panel; assay type: cell-based; details: 150 nM oligomeric compound, 4.5 μg/ml LIPOFECTIN, after 72 hours, propidium iodide flow cytometry
[6] = test system: Glut4; assay: Glut4 mRNA expression in adipocytes (real-time PCR); assay type: cell-based, human; details: for GLUT4 mRNA: differentiating adipocytes transfected with oligomeric compound; for Glut4 (mRNA expression): adipocytes, 250 nM oligomeric compound, day nine post-transfection, relative to control (1.0)
[7] = test system: HuVECs; assay: Endothelial tube formation assay in HuVECs; details: 75 nM oligomeric compound
[8] = differentiating adipocytes transfected with oligomeric compound
[9] = adipocytes, 250 nM oligomeric compound, relative to control (1.0), Table 15
[10] = adipocytes, 250 nM oligomeric compound, relative to control (1.0), Table 16
[11] = differentiating adipocytes transfected with oligomeric compound, Table 75

| Substance | G1 (percentage of cells in phase of the cell cycle) [5] | G2/M (percentage of cells in phase of the cell cycle) [5] | S (percentage of cells in phase of the cell cycle) [5] | SubG1 (percentage of cells in phase of the cell cycle) [5] | aneuploid (percentage of cells) [5] | HSL (mRNA expression) ([1]; Table 15) | HSL (mRNA expression) ([1]; Table 16) | AP2 (mRNA expression) ([2]; Table 15) | AP2 (mRNA expression) ([2]; Table 16) | TG (triglyceride accumulation) [3, 9] | TG (triglyceride accumulation) [3, 10] | PPAR gamma (mRNA expression) ([4]; Table 15) | PPAR gamma (mRNA expression) ([4]; Table 16) | Glut4 (mRNA expression) ([6]; Table 15) | Glut4 (mRNA expression) ([6]; Table 16) | % Activity Relative to UTC (tube formation) ([7]; Table 57) | further results |
| --- | --- | --- | --- | --- | --- | --- | --- | --- | --- | --- | --- | --- | --- | --- | --- | --- | --- |
| 327928 (antisense eA*eA*e[5mC]*e[5mC]*eG*eA*eT*eT*eT*e[5mC]*eA*eG*eA*eT*eG*eG*eT*eG*e[5mC]*eT*eA*eG) [compound 327928] | 56% | 16% | 27.9% | 6.6% | 15.9% |  |  |  |  |  |  |  |  |  |  |  | HSL mRNA [1]: 52 percentage of untreated control (UTC); AP2 mRNA [2, 8]: 77 percentage of untreated control (UTC); TG (triglyceride accumulation) [3, 8]: 45 percentage of untreated control (UTC); PPAR gamma mRNA [4]: 57 percentage of untreated control (UTC); GLUT4 mRNA [6]: 39 percentage of untreated control (UTC); % Activity Relative to UTC (tube formation) ([7]; Table 58): 37.0% |
| 327905 (antisense e[5mC]*eA*eG*eA*e[5mC]*eT*e[5mC]*e[5mC]*eG*eG*eT*eG*eG*eA*eA*eT*eG*eA*eA*eG*eG*eA) [compound 327905] | 56.9% | 15% | 28.1% | 8.5% | 14.7% | 1.11 | 0.69 | 1.14 | 0.68 | 0.69 | 0.58 | 0.54 | 0.83 | 0.84 | 0.40 | 48.3% |  |
| 327906 (antisense eT*e[5mC]*eA*eT*eA*eG*e[5mC]*e[5mC]*e[5mC]*eT*eG*eT*eA*e[5mC]*eA*eA*eT*eG*e[5mC]*eT*eG*e[5mC]*eT) [compound 327906] | 46.1% | 20.9% | 33% | 15.2% | 15.8% |  |  |  |  |  |  |  |  |  |  | 69.0% | HSL mRNA ([1]; Table 75): 37 percentage of untreated control (UTC); aP2 mRNA [2, 11]: 46 percentage of untreated control (UTC); TG (triglyceride accumulation) [3, 11]: 25 percentage of untreated control (UTC); PPAR gamma mRNA ([4]; Table 75): 50 percentage of untreated control (UTC); GLUT4 mRNA ([6]; Table 75): 14 percentage of untreated control (UTC) |
| 327919 (antisense eG*eA*eA*eA*e[5mC]*e[5mC]*e[5mC]*eA*eG*e[5mC]*eA*eG*eA*e[5mC]*eA*eA*eT*eG*eT*eA*eG*e[5mC]*eT) [compound 327919] | 54.3% | 15.4% | 30.3% | 10.8% | 16% | 0.57 | 0.37 | 0.79 | 0.48 | 0.58 | 0.40 | 0.52 | 0.57 | 0.32 | 0.18 | 103.5% |  |
